Experimental data from patent US8557855B2, “Methods of using ryanodine antagonists in treating neural injury” (Allergan, Inc., priority 2002, dated 2013).

How the values were obtained:
retinal ganglion cells [1] = settings: cited from earlier work
retinal ganglion cells [2] = assay: NMDA-induced injury of retinal ganglion cells in vivo in rabbits (cell count at RGC layer); settings: rabbit
Excerpt: (§1) To evaluate in vivo neuroprotective effects of dantrolene (DTL) on NMDA-induced injury of RGCs an imaging method to count cell numbers at the RGC layer in the isolated retinas was developed. Briefly, two weeks following intravitreal injection of vehicle or various test agents, a rabbit was euthanized and the treated eye was enucleated. A piece of retina (8 mm in diameter) was cut immediately below the optic nerve head, flat-mounted in a plastic chamber filled with HEPES-buffered Ames medium, and imaged at 25 fields in a 5×5 array with a 40× water immersion objective using an Olympus microscope (BX50WI) equipped with an epi-fluorescence unit. The images were taken with a Hamamatsu C4742-95 digital camera and Image-Pro Plus software (V4.5). The total number of neurons at the ganglion cell layer in these 25 fields was counted. The same measurements were conducted in one control group (rabbits treated with vehicle) and 4 test groups treated with 1) NMDA, 2) dantrolene+NMDA, 3) veratridine (Verat) a neurotoxin that damages retinal ganglion cells with intracellular sodium overload, and 4) dantrolene+veratridine. The results from the 4 test groups are normalized with respect to that of control.

retinal ganglion cells [3] = assay type: in vivo; settings: rabbit, intravitreal injection, two weeks after injection, normalized to vehicle control
Excerpt: as §1

Q: Which “effect on RGC loss in glaucomatous monkeys” value (retinal ganglion cells [1]) does the source give for CC12CC3CC(C)(C1)CC(N)(C3)C2 [memantine] here?
A: ameliorates RGC loss

Q: Which “loss of cells at the RGC layer caused by NMDA alone” value (retinal ganglion cells [2]; intravitreal injection, two weeks after injection, normalized to vehicle control) does the source give for CN[C@H](CC(=O)O)C(=O)O [NMDA] here?
A: 53%

Q: With O=C1CN(N=Cc2ccc(-c3ccc([N+](=O)[O-])cc3)o2)C(=O)N1 [dantrolene, 1-[[5-(p-Nitrophenyl)furfurylidene]amino]hydantoin] as the compound, how does the “cell loss caused by veratridine with dantrolene” value (retinal ganglion cells [3]; veratridine alone 56%) read?
A: 50%

Q: And the “neuroprotective effect on NMDA-induced damage to ganglion cells (FIG. 1)” value (retinal ganglion cells [2]; intravitreal injection of NMDA)?
A: ameliorated NMDA-induced damage to ganglion cells

Q: And the “NMDA-induced cell death at the RGC layer after pretreatment with dantrolene” value (retinal ganglion cells [2]; intravitreal injection, two weeks after injection, normalized to vehicle control, NMDA alone 53%)?
A: 35%

Q: For COc1ccc(C(=O)O[C@H]2CC[C@@]3(C)[C@@H]4CC[C@H]5[C@]6(O)C[C@H](O)[C@@]7(O)[C@@H](CN8C[C@@H](C)CC[C@H]8[C@@]7(C)O)[C@]6(O)C[C@@]53O[C@]24O)cc1OC [veratridine], which “cell loss at the RGC layer caused by veratridine alone” value (retinal ganglion cells [3]) is on record?
A: 56%
